# System: PPIB mRNA
# Assay: siRNA delivery with CPP-10H peptides, PPIB mRNA by Taqman qRT-PCR
# Assay type: cell-based
# Settings: GTM-3 cells; for suppression of PPIB mRNA expression: PPIB siRNA complexed with peptide 20:1 peptide:siRNA, 1 hour, 48 hour post-transfection, normalized to β-actin mRNA, relative to non-treated cells
# Method: The ability of 10 histidine residues (10H) to enhance endosomal release of siRNAs delivered using certain cell penetrating peptides (CPPs) was examined. […] (SEQ ID NO: 12). Peptidyl-prolyl cis-trans isomerase B (PPIB) siRNA and Non-Targeting siRNA #2 (NTC2) (Thermo Fisher Scientific, Dharmacon Products, Lafayette, Colo.) were complexed with TAT-10H, CTP-10H, and YM3-10H peptides (Abgent, Inc., San Diego, Calif.) at a 20:1 peptide: siRNA molar ratio for 30 minutes at room temperature, and applied to GTM-3 cells (Pang, I. H., et al., 1994 Curr Eye Res. 13:51-63) at a final siRNA concentration of 100-800 nM for 1 hour. PPIB mRNA and β-actin mRNA levels were determined by Taqman qRT-PCR assay (Applied Biosystems, Austin, Tex.) at 48 hour post-transfection (FIG. 1). Data were normalized to β-actin mRNA, and expressed relative to PPIB mRNA level in non-treated cells.
sequence,measurement,setting,value
CHHHHHGGRRARRRRRRHHGHHC (CHHHHHGGRRARRRRRRHHHHHC) [CTP-10H],non-specific silencing of PPIB mRNA expression with NTC2 control,"NTC2 non-targeting siRNA delivered with peptide, 800 nM siRNA, possibly due to a cytotoxic effect",significant silencing
same,suppression of PPIB mRNA expression,100 nM siRNA,~80%
same,suppression of PPIB mRNA expression,200 nM siRNA,≥ 90%
same,suppression of PPIB mRNA expression,800 nM siRNA,≥ 90%
